Data reported in US8178570B2, “Tie-2 modulators and methods of use” (Exelixis, Inc., priority 2003, dated 2012).

Each molecule was assayed against Tie-2 (Homo sapiens, UniProt Q02763) (assay: Tie-2 tyrosine kinase activity: kinase-dependent ATP consumption (pEY substrate, luciferase/luciferin chemiluminescence) or 33P-ATP incorporation into substrate). Conditions: Tie-2 (human enzyme) inhibition, Table 2, class symbols A-D.
Assay type: biochemical
In short: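 Values are IC50 categories: A below 50 nM, B above 50 to 1000 nM, C above 1000 to below 10,000 nM, D 10,000 nM or more. They were measured by 33P-ATP phosphate transfer onto a generic substrate bound to the plate (scintillation), or by luminescent luciferase detection of ATP used with pEY.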

Tie-2, sequence (Q02763 23-1124): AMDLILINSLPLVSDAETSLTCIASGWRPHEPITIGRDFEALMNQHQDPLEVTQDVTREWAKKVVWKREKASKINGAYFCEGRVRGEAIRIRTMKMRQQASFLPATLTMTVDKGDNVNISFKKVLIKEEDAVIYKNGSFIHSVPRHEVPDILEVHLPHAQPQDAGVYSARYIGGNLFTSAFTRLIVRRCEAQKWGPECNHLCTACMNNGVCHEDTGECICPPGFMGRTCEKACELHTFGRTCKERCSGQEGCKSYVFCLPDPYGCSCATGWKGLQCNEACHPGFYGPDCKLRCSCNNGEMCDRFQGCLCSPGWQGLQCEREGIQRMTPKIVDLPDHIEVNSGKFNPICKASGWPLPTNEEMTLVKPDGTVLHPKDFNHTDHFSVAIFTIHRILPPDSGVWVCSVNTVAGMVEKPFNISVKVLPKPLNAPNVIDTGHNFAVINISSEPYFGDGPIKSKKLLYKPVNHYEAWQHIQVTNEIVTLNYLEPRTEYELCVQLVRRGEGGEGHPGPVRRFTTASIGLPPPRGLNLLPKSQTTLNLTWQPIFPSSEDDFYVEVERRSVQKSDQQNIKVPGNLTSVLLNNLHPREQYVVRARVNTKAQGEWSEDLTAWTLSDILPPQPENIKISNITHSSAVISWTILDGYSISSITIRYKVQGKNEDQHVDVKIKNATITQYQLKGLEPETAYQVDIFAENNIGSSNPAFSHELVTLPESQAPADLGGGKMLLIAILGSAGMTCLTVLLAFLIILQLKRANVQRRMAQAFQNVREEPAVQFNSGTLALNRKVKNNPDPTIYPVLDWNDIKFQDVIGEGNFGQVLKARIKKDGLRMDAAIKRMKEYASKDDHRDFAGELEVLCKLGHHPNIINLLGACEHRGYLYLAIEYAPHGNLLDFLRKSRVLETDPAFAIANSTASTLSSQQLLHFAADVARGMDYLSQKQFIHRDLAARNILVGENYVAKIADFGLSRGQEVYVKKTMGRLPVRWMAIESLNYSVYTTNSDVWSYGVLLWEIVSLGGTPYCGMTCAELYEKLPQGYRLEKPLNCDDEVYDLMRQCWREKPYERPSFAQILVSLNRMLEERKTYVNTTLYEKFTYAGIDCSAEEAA

Compound	IC50 [µM]
COc1ccc(-c2nc(-c3ccncc3)nn2CCN(C(=O)Nc2cccc(SC)c2)C2CCCC2)cc1Cl [Entry 143, N-(2-{5-[3-chloro-4-(methyloxy)phenyl]-3-pyridin-4-yl-1H-1,2,4-triazol-1-yl}ethyl)-N-cyclopentyl-N′-[3-(methylthio)phenyl]urea]	≥ 10
COc1ccc(-c2nc(-c3ccncc3)nn2CCN(C(=O)Nc2cc(C)cc(C)c2)C2CCCC2)cc1Cl [Entry 144, N-(2-{5-[3-chloro-4-(methyloxy)phenyl]-3-pyridin-4-yl-1H-1,2,4-triazol-1-yl}ethyl)-N-cyclopentyl-N′-(3,5-dimethylphenyl)urea]	≥ 10
COc1ccc(-c2nc(-c3ccncc3)nn2CCN(C(=O)Nc2cc(C)ccc2OC)C2CCCC2)cc1Cl [Entry 145, N-(2-{5-[3-chloro-4-(methyloxy)phenyl]-3-pyridin-4-yl-1H-1,2,4-triazol-1-yl}ethyl)-N-cyclopentyl-N′-[5-methyl-2-(methyloxy)phenyl]urea]	≥ 10
COc1ccc(-c2nc(-c3ccncc3)nn2CCN(C(=O)Nc2ccc(I)cc2)C2CCCC2)cc1Cl [Entry 146, N-(2-{5-[3-chloro-4-(methyloxy)phenyl]-3-pyridin-4-yl-1H-1,2,4-triazol-1-yl}ethyl)-N-cyclopentyl-N′-(4-iodophenyl)urea]	≥ 10
COc1ccc(-c2nc(-c3ccncc3)nn2CCN(C(=O)Nc2ccc(Oc3ccccc3)cc2)C2CCCC2)cc1Cl [Entry 147, N-(2-{5-[3-chloro-4-(methyloxy)phenyl]-3-pyridin-4-yl-1H-1,2,4-triazol-1-yl}ethyl)-N-cyclopentyl-N′-[4-(phenyloxy)phenyl]urea]	≥ 10
COc1ccc(-c2nc(-c3ccncc3)nn2CCN(C(=O)Nc2c(C)cc(C)cc2C)C2CCCC2)cc1Cl [Entry 148, N-(2-{5-[3-chloro-4-(methyloxy)phenyl]-3-pyridin-4-yl-1H-1,2,4-triazol-1-yl}ethyl)-N-cyclopentyl-N′-(2,4,6-trimethylphenyl)urea]	≥ 10
COc1ccc(-c2nc(-c3ccncc3)nn2CCN(C(=O)Nc2cc(Cl)ccc2C)C2CCCC2)cc1Cl [Entry 149, N-(2-{5-[3-chloro-4-(methyloxy)phenyl]-3-pyridin-4-yl-1H-1,2,4-triazol-1-yl}ethyl)-N′-(5-chloro-2-methylphenyl)-N-cyclopentylurea]	1 to 10

Further lines, results first:

IC50 [µM]	Compound
1 to 10	COc1ccc(-c2nc(-c3ccncc3)nn2CCN(C(=O)Nc2ccc(Cl)cc2C)C2CCCC2)cc1Cl [Entry 150, N-(2-{5-[3-chloro-4-(methyloxy)phenyl]-3-pyridin-4-yl-1H-1,2,4-triazol-1-yl}ethyl)-N′-(4-chloro-2-methylphenyl)-N-cyclopentylurea]
≥ 10	COc1ccc(-c2nc(-c3ccncc3)nn2CCN(C(=O)Nc2c(C)cccc2Cl)C2CCCC2)cc1Cl [Entry 151, N-(2-{5-[3-chloro-4-(methyloxy)phenyl]-3-pyridin-4-yl-1H-1,2,4-triazol-1-yl}ethyl)-N′-(2-chloro-6-methylphenyl)-N-cyclopentylurea]
0.05 to 1	COc1ccc(-c2nc(-c3ccncc3)nn2CCN(C(=O)Nc2cccc(Cl)c2C)C2CCCC2)cc1Cl [Entry 152, N-(2-{5-[3-chloro-4-(methyloxy)phenyl]-3-pyridin-4-yl-1H-1,2,4-triazol-1-yl}ethyl)-N′-(3-chloro-2-methylphenyl)-N-cyclopentylurea]
≥ 10	COc1ccc(-c2nc(-c3ccncc3)nn2CCN(C(=O)Nc2ccc(F)c(Cl)c2)C2CCCC2)cc1Cl [Entry 153, N′-(3-chloro-4-fluorophenyl)-N-(2-{5-[3-chloro-4-(methyloxy)phenyl]-3-pyridin-4-yl-1H-1,2,4-triazol-1-yl}ethyl)-N-cyclopentylurea]
≥ 10	COc1ccc(-c2nc(-c3ccncc3)nn2CCN(C(=O)Nc2ccccc2SC)C2CCCC2)cc1Cl [Entry 154, N-(2-{5-[3-chloro-4-(methyloxy)phenyl]-3-pyridin-4-yl-1H-1,2,4-triazol-1-yl}ethyl)-N-cyclopentyl-N′-[2-(methylthio)phenyl]urea]
